The record followed here is the NIST ThermoML archive (doi:10.1021/je700177n).

± gives the expanded uncertainty stated by the source.

The nature of data set [1]: refractive index (Na D-line) (dimensionless); wn = mass fraction of the nth substance listed. To be noted: 333.15 K, 101 kPa, Liquid.
Data set [2] is described as follows: wn = mass fraction of the nth substance listed. The note with it: 333.15 K, 101 kPa, Liquid.

For orientation: refractive index means a measure of how strongly the sample bends light. One may read the mass density as the mass of a sample divided by its volume. The term viscosity denotes the internal friction of a fluid under shear. As to `O=C[C@H](O)[C@@H](O)[C@H](O)[C@H](O)CO` [D-glucose] + O, the refractive index in data set [1] (w1 = 0.1) was determined as 1.341 ± 0.005; in data set [1] (w1 = 0.2) it was 1.359 ± 0.005; in data set [1] (w1 = 0.3), 1.375 ± 0.005; in data set [1] (w1 = 0.4), 1.395 ± 0.005; in data set [1] (w1 = 0.5), 1.416 ± 0.005; in data set [1] (w1 = 0.6) it was 1.432 ± 0.005. Moreover, the refractive index in data set [1] (w1 = 0.7) is 1.455 ± 0.005; in data set [1] (w1 = 0.8), 1.477 ± 0.005; in data set [1] (w1 = 0.9) it was 1.506 ± 0.005. Moreover, the mass density in data set [2] (w1 = 0.1) is 1022 ± 2 kg/m3; in data set [2] (w1 = 0.2) it was 1063 ± 3 kg/m3; in data set [2] (w1 = 0.3), 1109 ± 3 kg/m3; in data set [2] (w1 = 0.4), 1157 ± 4 kg/m3; in data set [2] (w1 = 0.5), 1207 ± 5 kg/m3; in data set [2] (w1 = 0.6) it was 1268 ± 6 kg/m3. Further, the mass density is 1334 ± 7 kg/m3 in data set [2] (w1 = 0.7) and 1376 ± 8 kg/m3 in data set [2] (w1 = 0.8). The viscosity worked out at 29.4 mPa·s in data set [2] (w1 = 0.1); 34.8 mPa·s in data set [2] (w1 = 0.2); 43.8 mPa·s in data set [2] (w1 = 0.3); 63 mPa·s in data set [2] (w1 = 0.4); 107.1 mPa·s in data set [2] (w1 = 0.5); 264.6 mPa·s in data set [2] (w1 = 0.6). Besides, the viscosity in data set [2] (w1 = 0.7) came to 409.2 mPa·s; in data set [2] (w1 = 0.8), 430.8 mPa·s.
On to `O` [water] + O=C[C@H](O)[C@@H](O)[C@H](O)[C@H](O)CO, for which the refractive index in data set [1] (w2 = 0) is given as 1.326 ± 0.005.
